Experimental findings from patent US20140298493A1, “PIK3CA H1047R Knock-In Non-Human Animal Breast Cancer Model” (priority 2011, published 2014) are described below.

“Also recorded” adds a separate entry of the source.

For assay [1], the system named is PIK3CA^e20H1047R mammary tumor explants (spindle cell tumor with TP53 mutations) grown as xenografts. Briefly: Drug efficacy study: mammary tumor explants implanted subcutaneously near mammary fat pad, tumor growth inhibition and time to progression. It counts as in vivo, C.B-17 SCID beige mice. On the procedure:
Tumor sizes and mouse body weights were recorded twice weekly over the course of the study. […] The 2.5 and 97.5 percentiles of the simulated distribution were used as the […] UIs.

In assay [2] the test system is pAKT and pS6 (PI3K pathway) in PIK3CA^e20H1047R mammary tumor explants. As to the kind of experiment: Western blot of tumors from GDC-0941 treated mice (PI3K pathway inhibition). It is filed as in vivo, C.B-17 SCID beige mice. The settings on record: at least up to 10 hours following treatment. On the technique in general: A western blot detects proteins with antibodies after separation by electrophoresis.
Procedure: Frozen tumors were weighed and lysed with a pestle PP (Scienceware, NJ) in cell extract buffer (Invitrogen, CA) supplemented with protease inhibitors (F. Hoffman-La Roche, Ltd., Germany), 1 mM phenylmethysulfonyl fluoride, and phosphatase inhibitor cocktails 1 and 2 (Sigma, Mo.). Protein concentrations were determined using the Pierce BCA Protein Assay Kit (Rockford, Ill.). For Western blots equal amounts of protein were separated by electrophoresis through NuPage Bis-Tris 4-12% gradient gels (Invitrogen, CA), proteins were transferred onto nitrocellulose pore membranes using the iBlot system (Invitrogen, CA). Primary antibodies used for blotting include pAkt (Ser473), pAkt (Thr308), total Akt, pS6 (Ser235/236), pS6 (Ser240/242) and total S6 antibodies were obtained from Cell Signaling Technology (Danvers, Mass.), and anti-actin antibody was purchased from Sigma-Aldrich (St. Louis, Mo.). Chemiluminescence western blotting detection (Amersham Biosciences, PA) coupled with appropriate secondary horseradish peroxidase-conjugated secondary IgG antibodies was employed, to detect the primary antibody bound proteins.

In the case of `CS(=O)(=O)N1CCN(Cc2cc3nc(-c4cccc5[nH]ncc45)nc(N4CCOCC4)c3s2)CC1` [GDC-0941], in assay [1] (150 mg/kg, daily oral gavage for 13 days, % TGI relative to vehicle (AUC based), highest TGI), the “tumor growth inhibition (TGI)” value is 85%. The “response of tumor explants grown as xenografts to treatment” value in assay [1] (FIG. 5a legend) is given as “respond to treatment”. Also, the “time to progression, log-rank test versus vehicle control” value in assay [1] (all doses tested (50, 100, 150 mg/kg), p<0.0001 at 150 mg/kg) was “statistically significant difference”. Moreover, the “tumor growth inhibition compared to vehicle treatment” value in assay [1] (other doses tested (50 and 100 mg/kg), daily oral gavage for 13 days) is listed as “tumor growth inhibition was also observed”. The “pAKT and pS6 in tumor from treated mice” value in assay [2] was “significant decrease in pAKT and pS6; also recorded: evidence of PI3K pathway inhibition”.
